In PMC12751025, “α‑Aminoboronic Acid Moieties in Boro Dipeptides Modulate Proteasome Subunit Selectivity and Provide Access to Compounds with Potent Anticancer and Anti-Inflammatory Activity” (Journal of Medicinal Chemistry, 2025):
Converted amounts (≈) assume the structure as drawn.

Experiments:
[1] = Caco-2 permeability; format: in vitro ADME; conditions: human; for Papp A→B at 90 min, 10 μM / Papp B→A at 90 min, 10 μM: pH 7.4, Caco-2, 10 μM; for Papp A→B at 90 min, 10 μM: apical-to-basolateral; for Papp B→A at 90 min, 10 μM: basolateral-to-apical
Method: Caco-2 cells were cultured in 75 cm2 flasks to 80-90% confluence in a humidified atmosphere at 37 °C and 5% CO2. Cells were detached with Trypsin/EDTA solution and resuspended in the complete medium containing DMEM high glucose (4500 mg/L) with L-glutamine (4 mM) supplemented with 10% […]
heat-inactivated Fetal Bovine Serum, 1% non-essential amino acids, and 730 nM puromycin and seeded at a density 5 × 10^5 cells in 75 cm2 flask. After 5 days, cells were trypsinized and resuspended in the complete medium to a final concentration of 600 × 10^3 cells/mL. 400 μL of the cell suspension was added to each well of the HTS 24-Multiwell Insert System and 25 mL of prewarmed complete medium was added to the feeder tray. Caco-2 cells were incubated in Multiwell Insert System for 6-10 days before the transport experiments. The medium in the filter plate and feeder tray was refreshed every other day. The 24-well insert plate was removed from its feeder plate and placed in a new sterile 24-well transport analysis plate. The inserts were washed with PBS after medium aspiration. Ketoprofen, atenolol, and digoxin were used as reference compounds.
To determine the rate of compounds transport in apical (A)-to-basolateral (B) direction, 300 μL of the test compound dissolved in transport buffer (Hanks’ BSS (9.5 g/L) and NaHCO3 (0.35 g/L) with MgSO4 to final concentration 0.81 mM, CaCl2 to final concentration 1.26 mM, HEPES to final concentration 25 mM, pH adjusted to 7.4) was added into the filter wells; 1000 μL of transport buffer was added to transport analysis plate wells. To determine transport rates in the basolateral (B)-to-apical (A) direction, 1000 μL of the test compound solutions was added into the wells of the transport analysis plate, the wells in the filter plate were filled with 300 μL of buffer. The final amount of reference and test compounds was 10 μM. The plates were incubated for 90 min at 37 °C under continuous shaking at 100 rpm. 75 μL aliquots were taken from the donor and receiver compartments for LC-MS/MS analysis. All samples were mixed with 2 volumes of acetonitrile followed by protein sedimentation by centrifuging at 10000 rpm for 10 min. Supernatants were analyzed using the HPLC system coupled with a tandem mass spectrometer. […]
The GIT model was simulated using the GIT-0 phospholipid mix.
Verapamil, quinidine (high permeability), and ranitidine (low permeability) were used as reference […]
All compounds were tested in triplicate. Prisma HT buffer (pH 7.4) containing 50 μM test compounds (0.5% DMSO) was added to the Donor Plate wells. Acceptor Sink Buffer was added to each well of the Acceptor Plate. Incubation was done at room temperature for 4 hours without stirring. After

[2] = tested on: LPS-stimulated PBMCs; assay: Cytokine secretion, Cytometric Bead Array; format: cell-based, human; conditions: for dose-dependent effects on cytokine release from LPS-stimulated PBMCs: dose–response curves (Figure S12)
Method: PBMCs (1.5 × 10^6/mL) were plated in culture media in 96-well round-bottom plates. After a 60 min treatment with compounds at 37 °C and 5% CO2, cells were stimulated with LPS (Escherichia coli, O111:B4, 1 μg/mL, Sigma) for 24 h. Supernatants were then collected and analyzed for cytokine release by Human Inflammatory Cytokine Cytometric Bead Array (BD Biosciences, New Jersey, USA).

[3] = Metabolic stability in human liver microsomes; format: in vitro ADME; conditions: for half-life at 2 μM / k el at 2 μM / microsomal CLint at 2 μM: pH 7.4, human liver microsomes, 40 min
Method: Metabolic stability in human liver microsomes
Microsomal incubations were carried out in 96-well plates in 5 aliquots of 30 μL each (one for each time point). Liver microsomal incubation medium comprised of phosphate buffer (100 mM, pH 7.4), MgCl2 (3.3 mM), NADPН (3 mM), glucose-6-phosphate (5.3 mM), glucose-6-phosphate dehydrogenase (0.67 units/ml) with 0.42 mg of liver microsomal protein per mL. In the control reactions, the NADPH-cofactor system was substituted with phosphate buffer. Test compounds (2 μM, final acetonitrile concentration 1.6 %) were incubated with microsomes at 37 °C, shaking at 100 rpm. Five time points over 40 min were analyzed. The reactions were stopped by adding 4 volumes of acetonitrile with internal standard to incubation aliquots, followed by protein sedimentation by centrifuging at 5500 rpm for 5 min. Each reaction was performed in duplicates. Supernatants were analyzed using the HPLC system coupled with a tandem mass spectrometer. […]

[4] = Kinetic solubility; format: physicochemical; conditions: 25 °C; for solubility at 2 h / solubility kinetic at 2 h: phosphate-buffered saline, pH 7.4, aqueous buffer, kinetic from dmso stock; for solubility at 2 h: read-out: PBS solubility, pH 7.4; for solubility kinetic at 2 h: CSV column, unit inferred
Method: Briefly, using a 20 mM (10 mM for 5l) stock solution of the compound in 100% DMSO, dilutions were prepared to a theoretical concentration of 400 μM (200 μM for 5l) in duplicates in phosphate-buffered saline pH 7.4 (138 mM NaCl, 2.7 mM KCl, 10 mM K-phosphate) with 2% final DMSO. The experimental compound dilutions in PBS were further allowed to equilibrate at 25 °C on a thermostatic shaker for two hours and then filtered through HTS filter plates using a vacuum manifold. The filtrates of test compounds were diluted 2-fold with acetonitrile with 2% DMSO before measuring.
In parallel, using a 20 mM (10 mM for 5l) stock solution of the compound in 100% DMSO dilutions were prepared to theoretical concentrations of 0 μM (blank), […] (0 μM (blank), 10 μM, 25 50 μM, and 100 μM,μM for 5l) in 50% acetonitrile/PBS with 2% final DMSO to generate calibration curves. Ondansetron was used as a reference compound to control proper assay performance. 200 μL of each sample was transferred to a 96-well plate and measured in the 230-550 nm range with a 5 nm step. […]

[5] = kinetic solubility, 2% DMSO, two hours, theoretical concentration 400 μM (200 μM for 5l)

Compound	efflux ratio at 90 min, 10 μM ([1]; Caco-2, pH 7.4, quotient of Papp(BA) to Papp(AB))	Papp A→B at 90 min, 10 μM [1]	Papp B→A at 90 min, 10 μM [1]	Effect on secretion of cytokines in LPS-stimulated PBMCs ([2]; 250 nM, 1 h pretreatment, LPS 1 μg/mL, 24 h, IL-1, IL-6, IL-8, IL-10, TNF-α)	dose-dependent effects on cytokine release from LPS-stimulated PBMCs [2]	microsomal stability ([3]; compared with bortezomib)	half-life at 2 μM [3]	k el at 2 μM [3]	microsomal CLint at 2 μM [3]	solubility at 2 h [4, 5]	solubility kinetic at 2 h [4]	PBS solubility, pH 7.4 [4, 5]
O=C(N[C@@H](Cc1ccccc1)C(=O)N[C@H](B(O)O)C1CCCC1)c1cnccn1 [5l, ((R)-Cyclopentyl((S)-3-phenyl-2-(pyrazine-2-carboxamido)propanamido)methyl)boronic Acid]	8.4	2 ± 0.2 ×10⁻⁶ cm/s	17.1 ± 1 ×10⁻⁶ cm/s	strongest effects	very comparable effects	higher microsomal stability	39.4 min	0.0003 s⁻¹	42 µL/min/mg	≥ 200 µM	> 200 µM	
CC(C)C[C@H](NC(=O)[C@H](Cc1ccccc1)NC(=O)c1cnccn1)B(O)O [bortezomib, reference compound]		2.8 ± 0.1 ×10⁻⁶ cm/s	20.7 ± 0.1 ×10⁻⁶ cm/s		very comparable effects		34.5 min	0.000333 s⁻¹	48 µL/min/mg	399 µM (≈ 153 µg/mL)	399 µM (≈ 153 µg/mL)	> 200 μM
